Results: patent US10189796B2, “[4-(1,3,3-trimethyl-2-oxo-3,4-dihydro-1H-quinoxalin-7-yl)phenoxy]ethyloxy compound or salt thereof” (SANTEN PHARMACEUTICAL CO., LTD., priority 2015, dated 2019)

Experiments:
[1] = system: ovalbumin actively sensitized allergic conjunctivitis model of rabbits; assay: Allergic conjunctivitis model evaluation test; format: in vivo, rabbit; conditions: eye drop 50 μL four times a day for 4 days plus once, 0.5 hour after challenge
Protocol: In order to evaluate an anti-allergic action of the present compounds on allergic conjunctivitis, an inhibitory effect on hyperemia in an ovalbumin actively sensitized allergic conjunctivitis model of rabbits was investigated. Incidentally, this effect was evaluated by calculating an inhibitory ratio from the score of the base agent administered group (control group) and the score of the test compound administered group.
A base agent containing a general additive(s) was added to the test compound to prepare test compound suspensions with 1% (WN) and 3% (W/V).
By using male JW rabbits, ovalbumin (200 μg/mL/physiological saline solution) adsorbed on aluminum hydroxide gel was injected 200 μL per eye into bulbar conjunctiva of both eyes of rabbits, respectively, to perform active sensitization.
After 14 days from sensitization or later, the test compound suspension was eye-dropped four times a day for 4 days, and then, at the next day, it was eye-dropped (instillation dose: 50 μL/time) once to both eyes. Incidentally, the base agent was similarly eye-dropped to the base agent administered group (control group).
One hour after the final eye dropping of the test compound suspension, a physiological saline solution containing 0.02% (W/V) of ovalbumin was administered from rabbit ear vein at a dose of 1.5 mL per 1 kg of rabbit to induce allergic conjunctivitis.
After 0.5 hour of the challenge, the degree of hyperemia symptoms of both ocular conjunctiva of rabbits was evaluated according to the following criteria, and the average value of the total of these scores was calculated. […]

[2] = system: MCP-1 production in human monocyte cell (THP-1); assay: MCP-1 production inhibitory action evaluation test (LPS stimulation, ELISA); format: cell-based; conditions: THP-1, LPS, 18 hours
Protocol: In order to evaluate an action of the present compound as a GR agonist, an MCP-1 production inhibitory action in human monocyte cell after stimulation by LPS was investigated. For the measurement of the MCP-1 production amount in the sample, the ELISA method (manufactured by R&D Systems, Cat No. DCP00) was used, and a procedure was carried out according to the protocol attached thereto. Hereinafter, the specific method will be described.
LPS solution: After LPS was dissolved in PBS(−), the solution was diluted with 10% FBS-containing RPMI 1640 to prepare an LPS solution with a 40 μg/mL concentration.
After the test compound was dissolved in dimethylsulfoxide, the solution was diluted with an RPMI medium to prepare 400 μM of a test compound solution. The solution was diluted with a 4% dimethylsulfoxide-containing RPMI 1640 medium to prepare 40 μM of a test compound solution.
Used cells: human monocyte cell (THP-1) (ATCC)
• 1) Subcultured THP-1 was recovered and centrifuged at 1,100 rpm for 5 minutes to give a cell sediment. • 2) An RPMI medium (RPMI 1640 containing 10% FBS, 100 U/mL of penicillin, 100 μg/mL of streptomycin, 55 μM of 2-Mercaptoethanol, 10 ng/mL of human EGF, and 40 μg/mL of gentamicin) was added. • 3) The above suspension was seeded in a culture flask and cultured in a CO2 incubator (temperature: 37° C., CO2 concentration: 5%). The cells continued to subculture according to this method were used for the test. (Test Method and Measurement Method) • 1) The subcultured THP-1 was recovered and the cells were each seeded at 1.9×10^5 cells/0.19 mL/well in a 96-well round bottom culture plate. • 2) The test compound solution was added with each 5 μL/well and cultured for 2 hours. • 3) LPS solution was added with each 5 μL/well. • 4) The sample to which 4% dimethylsulfoxide-containing RPMI medium was added with each 5 μL/well in place of each test compound solution, and 10% FBS-RPMI 1640 was added with each 5 μL/well in place of the LPS solution was made a negative control. • 5) The sample to 4% dimethylsulfoxide-containing RPMI medium was added with each 5 μL/well in place of each test compound solution was made a positive control. • 6) After completion of 18 hours cultivation, the supernatant was recovered and the amount of MCP-1 released in the supernatant was measured by using an ELISA Kit. • 7) The MCP-1 production inhibitory ratio was calculated according to the following calculation formula. (Calculation of MCP-1 Production Inhibitory Ratio)
MCP-1 production inhibitory ratio (%) was calculated by the following formula. […]

[3] = system: paracentesis induced intraocular inflammation model of rabbits; assay: Anterior eye inflammation model evaluation test; format: in vivo, rabbit; conditions: 3% (W/V) suspension, eye dropped 50 μL four times; 120 minutes after primary puncture
Protocol: In order to evaluate an anti-inflammatory action of the present compound on anterior eye inflammation, an inhibitory effect on a number of infiltrated cells into aqueous humor in a paracentesis induced intraocular inflammation model of rabbits was investigated. Incidentally, this effect was evaluated by calculating an inhibitory ratio from a number of infiltrated cells into aqueous humor in the base agent administered group (control group) and a number of infiltrated cells into aqueous humor in the test compound administered group.
A base agent containing a general additive(s) was added to the test compound to prepare a test compound suspension with 3% (W/V).
• 1) Male JW rabbits underwent local anesthesia with 0.4% oxybuprocaine hydrochloride (trade name: Benoxil ophthalmic solution 0.4%), and about 0.1 mL of anterior aqueous humor was collected by using a syringe for tuberculin so as not to touch the iris to carry out primary puncture, whereby an inflammatory response was induced. • 2) Thirty minutes before the primary puncture, heparin was intravenously administered so as to be about 50 unit/kg. • 3) The test compound suspension was eye dropped (instillation dose: 50 μL/time) to both eyes in total four times, 210 minutes before, 60 minutes before, 15 minutes after, and 90 minutes after the primary puncture. […]

[4] = system: exorbital lacrimal gland-removed rat dry eye model; assay: Dry eye syndrome (dry eye) model evaluation test; format: in vivo; conditions: eye drop 5 μL four times a day

SMILES: COc1cc(OC[C@@H](O)CC#N)ccc1-c1ccc2c(c1COc1cc(F)ccc1C)N(C)C(=O)C(C)(C)N2 [Compound 5-2, (S)-7-[4-(3-cyano-2-hydroxypropyl)oxy-2-methoxyphenyl]-8-(5-fluoro-2-methyl-phenoxymethyl)-1,3,3-trimethyl-3,4-dihydro-1H-quinoxalin-2-one]
- Eye congestion inhibitory ratio (%) ([1]; 3% suspension): 35%

SMILES: COCOc1ccc(-c2ccc3c(c2COc2cc(F)ccc2C)N(C)C(=O)C(C)(C)N3)c(OC)c1 [Control compound F, 8-(5-fluoro-2-methylphenoxymethyl)-7-(2-methoxy-4-methoxymethoxyphenyl)-1,3,3-trimethyl-3,4-dihydro-1H-quinoxalin-2-one, reference compound]
- MCP-1 production inhibitory ratio (% of 1 μM) [2]: 27%

SMILES: COc1cc(OC[C@H](C)OC(=O)CN(C)C)ccc1-c1ccc2c(c1COc1cc(F)ccc1C)N(C)C(=O)C(C)(C)N2 [Compound 11-1, (S)-7-[4-[2-(N,N-dimethylaminoacetoxy)propyl]oxy-2-methoxyphenyl]-8-(5-fluoro-2-methylphenoxymethyl)-1,3,3-trimethyl-3,4-dihydro-1H-quinoxalin-2-one]
- Eye congestion inhibitory ratio (%) ([1]; 1% suspension): 44%
- inhibitory ratio (%) of the number of infiltrated cells into aqueous humor [3]: 37%
- MCP-1 production inhibitory ratio (% of 1 μM) [2]: 88%
- Corneal disorder improvement ratio (%) After 7 days eye dropping ([4]; 0.03%): 35%
- Corneal disorder improvement ratio (%) After 7 days eye dropping ([4]; 0.1%): 44%

SMILES: COc1ccc(O)cc1-c1ccc2c(c1COc1cc(F)ccc1C)N(C)C(=O)C(C)(C)N2 [Control compound C, 8-(5-fluoro-2-methylphenoxymethyl)-7-(5-hydroxy-2-methoxyphenyl)-1,3,3-trimethyl-3,4-dihydro-1H-quinoxalin-2-one]
- MCP-1 production inhibitory ratio (% of 1 μM) [2]: 65%

SMILES: COc1ccc(-c2ccc3c(c2COc2cc(F)ccc2C)N(C)C(=O)C(C)(C)N3)c(OC)c1 [Control compound E, 7-(2,4-dimethoxyphenyl)-8-(5-fluoro-2-methyl-phenoxymethyl)-1,3,3-trimethyl-3,4-dihydro-1H-quinoxalin-2-one, reference compound]
- MCP-1 production inhibitory ratio (% of 1 μM) [2]: 40%
